This is an account of results in US9169254B2, “Spiroimidazolone derivative” (Chugai Seiyaku Kabushiki Kaisha, priority 2009, dated 2015).

Structures are written as SMILES.

The experiment deals with T1, human PTH1 receptor (Homo sapiens, UniProt Q03431).
T1 sequence (Q03431 27-593): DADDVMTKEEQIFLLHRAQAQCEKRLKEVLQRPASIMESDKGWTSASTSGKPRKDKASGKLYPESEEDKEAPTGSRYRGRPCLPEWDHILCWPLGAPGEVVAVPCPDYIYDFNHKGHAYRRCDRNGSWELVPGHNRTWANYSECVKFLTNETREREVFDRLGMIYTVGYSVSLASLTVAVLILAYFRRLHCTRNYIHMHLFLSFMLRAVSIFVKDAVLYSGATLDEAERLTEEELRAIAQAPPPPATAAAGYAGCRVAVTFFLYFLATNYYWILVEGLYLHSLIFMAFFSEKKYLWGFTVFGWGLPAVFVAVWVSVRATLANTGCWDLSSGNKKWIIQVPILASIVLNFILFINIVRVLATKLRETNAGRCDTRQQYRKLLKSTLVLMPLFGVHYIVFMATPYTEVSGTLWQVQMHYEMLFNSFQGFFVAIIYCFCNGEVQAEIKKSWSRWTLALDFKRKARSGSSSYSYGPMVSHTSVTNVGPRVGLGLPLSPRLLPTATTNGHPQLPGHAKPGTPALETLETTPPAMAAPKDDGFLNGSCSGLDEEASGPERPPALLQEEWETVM
The experiment can be described thus: In vitro cAMP signal activity in HKRK-B7 cells (LLC-PK1 cells overexpressing the human PTH1 receptor). It is filed as cell-based.

The mark [1] stands for this setting: HKRK-B7 cells, compound at 1×10^−3 M, cAMP produced as percentage of that produced by hPTH(1-34) at 100 nM.

On to `Cc1cc(N(C2CCC(O)CC2)S(C)(=O)=O)cc(C)c1/C=C/S(=O)(=O)N1CCC2(CC1)N=C(c1cccc(OC(F)(F)F)c1)NC2=O` (centres unmarked) [Compound 715, N-(3,5-dimethyl-4-{(E)-2-[4-oxo-2-(3-trifluoromethoxy-phenyl)-1,3,8-triaza-spiro[4.5]dec-1-ene-8-sulfonyl]-vinyl}-phenyl)-N-(4-hydroxy-cyclohexyl)-methane sulfonamide], for which, under setting [1], the “cAMP production activity (%)” value is given as 20%.

On to `Cc1cc(N2C(=O)NC(C)(C)C2=O)ccc1/C=C/S(=O)(=O)N1CCC2(CC1)N=C(C1CCC(C)CC1)NC2=O` (centres unmarked) [Compound 511, 5,5-dimethyl-3-(3-methyl-4-{(E)-2-[2-(4-methyl-cyclohexyl)-4-oxo-1,3,8-triaza-spiro[4.5]dec-1-ene-8-sulfonyl]-vinyl}-phenyl)-imidazolidine-2,4-dione], for which, under setting [1], the “cAMP production activity (%)” value worked out at 29%. Take `Cc1cc(N(C)C(N)=O)cc(C)c1/C=C/S(=O)(=O)N1CCC2(CC1)N=C(CCCCCCCCCCCN)NC2=O` [Compound 1315, 1-(4-{(E)-2-[2-(11-Amino-undecyl)-4-oxo-1,3,8-triaza-spiro[4.5]dec-1-ene-8-sulfonyl]-vinyl}-3,5-dimethyl-phenyl)-1-methyl-urea]: the “cAMP production activity (%)” value under setting [1] came out at 76%. `Cc1cc(C(=O)N2CCS(=O)(=O)CC2)ccc1/C=C/S(=O)(=O)N1CCC2(CC1)N=C(C1CCCCC1)NC2=O` [Compound 502, 2-cyclohexyl-8-{(E)-2-[4-(1,1-dioxo-1λ^6-thiomorpholine-4-carbonyl)-2-methyl-phenyl]-ethenesulfonyl}-1,3,8-triaza-spiro[4.5]dec-1-en-4-one]: the “cAMP production activity (%)” value under setting [1] stood at 14%. Regarding `Cc1cc(C(=O)N(C)C)cc(C)c1/C=C/S(=O)(=O)N1CCC2(CC1)N=C(c1cccc(OC(F)(F)F)c1)NC2=O` [Compound 961, 3,5,N,N-tetramethyl-4-{(E)-2-[4-oxo-2-(3-trifluoromethoxy-phenyl)-1,3,8-triaza-spiro[4.5]dec-1-ene-8-sulfonyl]-vinyl}-benzamide], the “cAMP production activity (%)” value under setting [1] is given as 92%.

Turning to `CCCCCCCCCC1=NC2(CCN(S(=O)(=O)CCc3c(C)cc(C(=O)O)cc3C)CC2)C(=O)N1` [Compound 796, 3,5-dimethyl-4-[2-(2-nonyl-4-oxo-1,3,8-triaza-spiro[4.5]dec-1-ene-8-sulfonyl)-ethyl]-benzoic acid], the “cAMP production activity (%)” value under setting [1] was 64%. Still for that read-out and setting: for `Cc1cc2ccc1CCS(=O)(=O)N1CCC3(CC1)N=C(NC3=O)c1cc(cc(C(F)(F)F)c1)OCCCCCCCN(C)C2=O` [Compound 1407] the value was 6.6%. For `Cc1cc(N(C)C(N)=O)cc(C)c1CC[S@TB4](=O)(=O)N1CCC2(CC1)N=C(c1ccc([Si](C)(C)C)cc1)NC2=O` [Compound 1139, 1-(3,5-dimethyl-4-{2-[4-oxo-2-(4-trimethylsilanyl-phenyl)-1,3,8-triaza-spiro[4.5]dec-1-ene-8-sulfonyl]-ethyl}-phenyl)-1-methyl-urea], the “cAMP production activity (%)” value (0.1 µM) worked out at 86%. Take `Cc1cc2ccc1CCS(=O)(=O)N1CCC3(CC1)N=C(NC3=O)c1cc(cc(C(F)(F)F)c1)OCCOCCNC(=O)CN(C)C2=O` [Compound 1440]: the “cAMP production activity (%)” value under setting [1] is given as 10%. As to `Cc1cc(C(=O)N(C)C)ccc1CCS(=O)(=O)N1CCC2(CC1)N=C(c1cc(Cl)cc(C(F)(F)F)c1)NC2=O` [Compound 127, 4-{2-[2-(3-chloro-5-trifluoromethyl-phenyl)-4-oxo-1,3,8-triaza-spiro[4.5]dec-1-ene-8-sulfonyl]-ethyl}-3,N,N-trimethyl-benzamide], the “cAMP production activity (%)” value under setting [1] came out at 72%. With `CNC1CCN(C(=O)c2ccc(CCS(=O)(=O)N3CCC4(CC3)N=C(c3cccc(C(F)(F)F)c3)NC4=O)c(C)c2)C1` (centres unmarked) [Compound 444, 8-{2-[2-Methyl-4-(3-methylamino-pyrrolidine-1-carbonyl)-phenyl]-ethanesulfonyl}-2-(3-trifluoromethyl-phenyl)-1,3,8-triaza-spiro[4.5]dec-1-en-4-one], the “cAMP production activity (%)” value under setting [1] turned out to be 46%. Regarding `Cc1cc(N(C)C(N)=O)cc(C)c1CCS(=O)(=O)N1CCC2(CC1)N=C(C1CCC(CCC(F)(F)F)CC1)NC2=O` (centres unmarked) [Compound 696, 1-[3,5-Dimethyl-4-(2-{4-oxo-2-[4-(3,3,3-trifluoro-propyl)-cyclohexyl]-1,3,8-triaza-spiro[4.5]dec-1-ene-8-sulfonyl}-ethyl)-phenyl]-1-methyl-urea], the “cAMP production activity (%)” value under setting [1] stood at 132%. On the same count and under the same terms, for `Cc1ccccc1C1=NC2(CCN(S(=O)(=O)c3cccc(Cl)c3)CC2)C(=O)N1` [Compound 11, 8-(3-chloro-benzenesulfonyl)-2-o-tolyl-1,3,8-triaza-spiro[4.5]dec-1-en-4-one] the value was 16%. Regarding `CC(=O)NC(C)c1ccc(/C=C/S(=O)(=O)N2CCC3(CC2)N=C(C2CCCCC2)NC3=O)cc1` (centres unmarked) [Compound 482, N-(1-{4-[(E)-2-(2-cyclohexyl-4-oxo-1,3,8-triaza-spiro[4.5]dec-1-ene-8-sulfonyl)-vinyl]-phenyl}-ethyl)-acetamide], the “cAMP production activity (%)” value under setting [1] came to 38%.

As for `Cc1cc(N2CCNCC2=O)ccc1CCS(=O)(=O)N1CCC2(CC1)N=C(C1CCC(C)CC1)NC2=O` (centres unmarked) [Compound 870, 2-(4-methyl-cyclohexyl)-8-{2-[2-methyl-4-(2-oxo-piperazin-1-yl)-phenyl]-ethanesulfonyl}-1,3,8-triaza-spiro[4.5]dec-1-en-4-one], under setting [1], the “cAMP production activity (%)” value is recorded as 63%. As to `Cc1cc(C(=O)N2CCCO2)cc(C)c1CCS(=O)(=O)N1CCC2(CC1)N=C(C1CCC(C)CC1)NC2=O` (centres unmarked) [Compound 1182, 8-{2-[4-(isoxazolidine-2-carbonyl)-2,6-dimethyl-phenyl]-ethanesulfonyl}-2-(4-methyl-cyclohexyl)-1,3,8-triaza-spiro[4.5]dec-1-en-4-one], the “cAMP production activity (%)” value under setting [1] is recorded as 109%. For `CC(=O)Nc1ccc(CCS(=O)(=O)N2CCC3(CC2)N=C([C@H]2CCC[C@@H](C)C2)NC3=O)c(C)c1` [Compound 924, N-(3-methyl-4-{2-[2-((1S,3R)-3-methyl-cyclohexyl)-4-oxo-1,3,8-triaza-spiro[4.5]dec-1-ene-8-sulfonyl]-ethyl}-phenyl)-acetamide], the “cAMP production activity (%)” value under setting [1] amounted to 76%. As to `COC(=O)Cn1ccc2c(/C=C/S(=O)(=O)N3CCC4(CC3)N=C(C3CCCCC3)NC4=O)cccc21` [Compound 476, {4-[(E)-2-(2-cyclohexyl-4-oxo-1,3,8-triaza-spiro[4.5]dec-1-ene-8-sulfonyl)-vinyl]-indol-1-yl}-acetic acid methyl ester], the “cAMP production activity (%)” value under setting [1] came to 61%.

In the case of `Cc1cc(N2C(=O)CNC2=O)cc(C)c1/C=C/S(=O)(=O)N1CCC2(CC1)N=C(C1CCC(C)CC1)NC2=O` (centres unmarked) [Compound 575, 3-(3,5-Dimethyl-4-{(E)-2-[2-(4-methyl-cyclohexyl)-4-oxo-1,3,8-triaza-spiro[4.5]dec-1-ene-8-sulfonyl]-vinyl}-phenyl)-imidazolidine-2,4-dione], under setting [1], the “cAMP production activity (%)” value is given as 57%.

On to `CCCCC1CCC(C2=NC3(CCN(S(=O)(=O)/C=C/c4c(C)cc(C(=O)N5CCC(OCCO)CC5)cc4C)CC3)C(=O)N2)CC1` (centres unmarked) [Compound 1008, 2-(4-Butyl-cyclohexyl)-8-((E)-2-{4-[4-(2-hydroxy-ethoxy)-piperidine-1-carbonyl]-2,6-dimethyl-phenyl}-ethenesulfonyl)-1,3,8-triaza-spiro[4.5]dec-1-en-4-one], for which the “cAMP production activity (%)” value under setting [1] is 73%.
